Marks after values point to notes of the source that are not given here.
Experiment: Safety and tolerability: adverse events, dose-limiting toxicities, MTD, RP2D (Phase 1A/1B)
Format: in vivo
Procedure: This was an open-label, Phase 1, dose-escalation/dose-expansion study, conducted across six study centres in Australia. The dose-escalation phase evaluated twice-daily (BID) and once-daily (QD) dosing, and the dose-expansion phase evaluated the BID RP2D from the dose-escalation phase and food effects (Fig. 1). The food-effects cohort comprised two sequences: fast followed by fed (sequence 1) and fed followed by fast (sequence 2). […] The decision to proceed to the next dose cohort was determined by the Safety Monitoring Committee and followed a modified 3 + 3 escalation scheme. […] When ≥2 DLTs occurred in the first 23 days of a dose level, the next lower dose level was declared the MTD. Safety was monitored and DLTs were assessed in all dose cohorts. […] The food-effects cohort investigated the effects of food on the PK of pamiparib in patients with advanced solid tumours.
The QD dosing regimen was added as an amendment to the protocol with the purpose of exploring the feasibility of a more convenient regimen.
Safety and tolerability were assessed throughout the study by monitoring adverse events (AEs), serious AEs, clinical laboratory measurements and physical examinations. Adverse events were categorised according to their severity (National Cancer Institute Common Terminology Criteria for Adverse Events v4.03) and relationship to the study treatment.

## C[C@]12CCCN1CC1=NNC(=O)c3cc(F)cc4[nH]c2c1c34 [pamiparib]
20 mg BID (n = 3)
  Ascites, AE of any grade: 0 (0.0) n (%)
  Back pain, AE of any grade: 0 (0.0) n (%)
  Constipation, AE of any grade: 0 (0.0) n (%)
  Cough, AE of any grade: 0 (0.0) n (%)
  Decreased appetite, AE of any grade: 0 (0.0) n (%)
  Diarrhoea, AE of any grade: 2 (66.7) n (%)
  Dose-limiting toxicity: 0 (0.0) n (%)
  Dyspnoea, AE of any grade: 1 (33.3) n (%)
  Fatigue, AE of any grade: 3 (100.0) n (%)
  Headache, AE of any grade: 1 (33.3) n (%)
  Hypoalbuminemia, AE of any grade: 0 (0.0) n (%)
  Hypomagnesemia, AE of any grade: 1 (33.3) n (%)
  Hypophosphatemia, AE of any grade: 0 (0.0) n (%)
  Increased AST, AE of any grade: 0 (0.0) n (%)
  Muscle spasms, AE of any grade: 0 (0.0) n (%)
  Nausea, AE of any grade: 2 (66.7) n (%)
  Neutropenia, AE of any grade: 0 (0.0) n (%)
  Non-cardiac chest pain, AE of any grade: 0 (0.0) n (%)
  Pain in extremity, AE of any grade: 1 (33.3) n (%)
  Peripheral sensory neuropathy, AE of any grade: 1 (33.3) n (%)
  Pleural effusion, AE of any grade: 0 (0.0) n (%)
  Pyrexia, AE of any grade: 0 (0.0) n (%)
  Treatment-emergent AE: 3 (100.0) n (%)
  Treatment-emergent AE: Grade 3 or higher: 1 (33.3) n (%)
  Treatment-emergent AE: Leading to death: 0 (0.0) n (%)
  Treatment-emergent AE: Leading to dose interruption: 3 (100.0) n (%)
  Treatment-emergent AE: Leading to dose modification: 3 (100.0) n (%)
  Treatment-emergent AE: Leading to dose reduction: 1 (33.3) n (%)
  Treatment-emergent AE: Leading to treatment discontinuation: 0 (0.0) n (%)
  Treatment-emergent AE: Serious: 1 (33.3) n (%)
  Treatment-related AE: 3 (100.0) n (%)
  Treatment-related AE: Grade 3 or higher: 1 (33.3) n (%)
  Treatment-related AE: Leading to death: 0 (0.0) n (%)
  Treatment-related AE: Leading to dose interruption: 1 (33.3) n (%)
  Treatment-related AE: Leading to dose modification: 1 (33.3) n (%)
  Treatment-related AE: Leading to dose reduction: 1 (33.3) n (%)
  Treatment-related AE: Leading to treatment discontinuation: 0 (0.0) n (%)
  Treatment-related AE: Serious: 0 (0.0) n (%)
  Upper respiratory tract infection, AE of any grade: 0 (0.0) n (%)
  Urinary tract infection, AE of any grade: 1 (33.3) n (%)
  Vomiting, AE of any grade: 2 (66.7) n (%)
40 mg BID (n = 6)
  Abdominal pain, AE of any grade: 0 (0.0) n (%)
  Anaemia, AE of any grade: 2 (33.3) n (%)
  Ascites, AE of any grade: 1 (16.7) n (%)
  Back pain, AE of any grade: 2 (33.3) n (%)
  Constipation, AE of any grade: 1 (16.7) n (%)
  Cough, AE of any grade: 0 (0.0) n (%)
  Decreased appetite, AE of any grade: 0 (0.0) n (%)
  Diarrhoea, AE of any grade: 2 (33.3) n (%)
  Dose-limiting toxicity: 1 (16.7)^a n (%)
  Dyspnoea, AE of any grade: 0 (0.0) n (%)
  Fatigue, AE of any grade: 2 (33.3) n (%)
  Headache, AE of any grade: 2 (33.3) n (%)
  Hypoalbuminemia, AE of any grade: 0 (0.0) n (%)
  Hypomagnesemia, AE of any grade: 0 (0.0) n (%)
  Hypophosphatemia, AE of any grade: 1 (16.7) n (%)
  Increased AST, AE of any grade: 1 (16.7) n (%)
  Muscle spasms, AE of any grade: 0 (0.0) n (%)
  Nausea, AE of any grade: 5 (83.3) n (%)
  Neutropenia, AE of any grade: 2 (33.3) n (%)
  Non-cardiac chest pain, AE of any grade: 0 (0.0) n (%)
  Pain in extremity, AE of any grade: 0 (0.0) n (%)
  Peripheral sensory neuropathy, AE of any grade: 0 (0.0) n (%)
  Pleural effusion, AE of any grade: 0 (0.0) n (%)
  Pyrexia, AE of any grade: 0 (0.0) n (%)
  Treatment-emergent AE: 6 (100.0) n (%)

— article PMC8854719, “Phase 1A/1B dose-escalation and -expansion study to evaluate the safety, pharmacokinetics, food effects and antitumor activity of pamiparib in advanced solid tumours” (British Journal of Cancer, 2021)
